9 molecules from patent US7820623B2 (priority 2006, dated 2010) can be followed below.

In test [1] the test system is thapsigargin-induced IL-2 production in human whole blood.
Test [2] has as its system thapsigargin-induced IFN-g production in human whole blood. It counts as cell-based.
Setting [3] is: read-out: Analogue Activity (IC50) WB/IL-2.
Setting [4] is: read-out: Analogue Activity (IC50) WB/IFNg.

Where two headings read alike, the source gives them in different places. Bridge positions count the residues as written; N and C are the ends. Square brackets hold non-standard residues; d marks the D form. Peptide text beside a SMILES is read from it. 1Nal = N[C@@H](Cc1cccc2ccccc12)C(=O)O

Turning to `CC[C@H](C)[C@@H]1NC(=O)[C@H](CCCCN)NC(=O)[C@@H](NC(=O)[C@H](CCCCN)NC(=O)[C@@H](NC(=O)[C@H](CC(N)=O)NC(=O)[C@@H](NC(=O)[C@@H](NC(=O)[C@@H](NC(=O)CN)C(C)C)[C@@H](C)CC)[C@@H](C)CC)C(C)C)CSSC[C@@H]2NC(=O)[C@H](CCCCN)NC(=O)CNC(=O)[C@H](Cc3ccccc3)NC(=O)[C@H](CCCNC(=N)N)NC(=O)[C@H](CCSC)NC(=O)CNC(=O)[C@H](C)NC(=O)[C@H](CCCCN)NC(=O)[C@H](CCCCN)NC(=O)[C@@H]3CSSC[C@@H](C(=O)N[C@H](C(=O)N4CCC[C@H]4C(=O)N[C@@H](CCCCN)C(=O)O)[C@@H](C)O)NC(=O)[C@H](Cc4c[nH]cn4)NC(=O)[C@H](CSSC[C@H](NC(=O)[C@H](CCCNC(=N)N)NC(=O)[C@H](CCCNC(=N)N)NC(=O)[C@H](CO)NC1=O)C(=O)N[C@@H](CC(C)C)C(=O)N[C@@H](CCC(=O)O)C(=O)N1CCC[C@H]1C(=O)N3)NC(=O)[C@H](CCCCN)NC(=O)CNC(=O)[C@H](CC(N)=O)NC(=O)[C@H](CCSC)NC2=O` [Q13R] (H-GVIINVKCKISRRCLEPCKKAGMRFGKCMNGKCHCTPK-OH; disulfide 8-28, 14-33, 18-35), the IC50 in test [1] (setting [3]) is 160 pM; in test [2] (setting [4]), 172 pM.
As to `CC[C@H](C)[C@@H]1NC(=O)[C@H](CCCCN)NC(=O)[C@@H](NC(=O)[C@H](CCCCN)NC(=O)[C@@H](NC(=O)[C@H](CC(N)=O)NC(=O)[C@H](CCCNC(=N)N)NC(=O)[C@@H](NC(=O)[C@@H](NC(=O)CN)C(C)C)[C@@H](C)CC)C(C)C)CSSC[C@@H]2NC(=O)[C@H](CCCCN)NC(=O)CNC(=O)[C@H](Cc3ccccc3)NC(=O)[C@H](CCCNC(=N)N)NC(=O)[C@H](CCSC)NC(=O)CNC(=O)[C@H](C)NC(=O)[C@H](CCCCN)NC(=O)[C@H](CCCCN)NC(=O)[C@@H]3CSSC[C@@H](C(=O)N[C@H](C(=O)N4CCC[C@H]4C(=O)N[C@@H](CCCCN)C(=O)O)[C@@H](C)O)NC(=O)[C@H](Cc4c[nH]cn4)NC(=O)[C@H](CSSC[C@H](NC(=O)[C@H](CCC(N)=O)NC(=O)[C@H](CCCNC(=N)N)NC(=O)[C@H](CO)NC1=O)C(=O)N[C@@H](CC(C)C)C(=O)N[C@@H](CCC(=O)O)C(=O)N1CCC[C@H]1C(=O)N3)NC(=O)[C@H](CCCCN)NC(=O)CNC(=O)[C@H](CC(N)=O)NC(=O)[C@H](CCSC)NC2=O` [I4R] (H-GVIRNVKCKISRQCLEPCKKAGMRFGKCMNGKCHCTPK-OH; disulfide 8-28, 14-33, 18-35), the IC50 in test [1] (setting [3]) turned out to be 168 pM; in test [2] (setting [4]), 175 pM.
The matching figures for `CC[C@H](C)[C@@H]1NC(=O)[C@H](CCCCN)NC(=O)[C@@H](NC(=O)[C@H](CCCCN)NC(=O)[C@@H](NC(=O)[C@H](CC(N)=O)NC(=O)[C@@H](NC(=O)[C@@H](NC(=O)[C@H](Cc2cccc3ccccc23)NC(=O)CN)[C@@H](C)CC)[C@@H](C)CC)C(C)C)CSSC[C@@H]2NC(=O)[C@H](CCCCN)NC(=O)CNC(=O)[C@H](Cc3ccccc3)NC(=O)[C@H](CCCNC(=N)N)NC(=O)[C@H](CCSC)NC(=O)CNC(=O)[C@H](C)NC(=O)[C@H](CCCCN)NC(=O)[C@H](CCCCN)NC(=O)[C@@H]3CSSC[C@@H](C(=O)N[C@H](C(=O)N4CCC[C@H]4C(=O)N[C@@H](CCCCN)C(=O)O)[C@@H](C)O)NC(=O)[C@H](Cc4c[nH]cn4)NC(=O)[C@H](CSSC[C@H](NC(=O)[C@H](CCC(N)=O)NC(=O)[C@H](CCCNC(=N)N)NC(=O)[C@H](CO)NC1=O)C(=O)N[C@@H](CC(C)C)C(=O)N[C@@H](CCC(=O)O)C(=O)N1CCC[C@H]1C(=O)N3)NC(=O)[C@H](CCCCN)NC(=O)CNC(=O)[C@H](CC(N)=O)NC(=O)[C@H](CCSC)NC2=O` [V2Nal] (H-G[1Nal]IINVKCKISRQCLEPCKKAGMRFGKCMNGKCHCTPK-OH; disulfide 8-28, 14-33, 18-35): 750 pM and 524 pM.
The matching figures for `CC[C@H](C)[C@@H]1NC(=O)[C@H](CCCCN)NC(=O)[C@@H](NC(=O)[C@H](CCCCN)NC(=O)[C@@H](NC(=O)[C@H](CC(N)=O)NC(=O)[C@@H](NC(=O)[C@@H](NC(=O)[C@@H](NC(=O)CN)C(C)C)[C@@H](C)CC)[C@@H](C)CC)C(C)C)CSSC[C@@H]2NC(=O)[C@H](CCCCN)NC(=O)CNC(=O)[C@H](Cc3ccccc3)NC(=O)[C@H](CCCNC(=N)N)NC(=O)[C@H](C)NC(=O)CNC(=O)[C@H](C)NC(=O)[C@H](CCCCN)NC(=O)[C@H](CCCCN)NC(=O)[C@@H]3CSSC[C@@H](C(=O)N[C@H](C(=O)N4CCC[C@H]4C(=O)N[C@@H](CCCCN)C(=O)O)[C@@H](C)O)NC(=O)[C@H](Cc4c[nH]cn4)NC(=O)[C@H](CSSC[C@H](NC(=O)[C@H](CCC(N)=O)NC(=O)[C@H](CCCNC(=N)N)NC(=O)[C@H](CO)NC1=O)C(=O)N[C@@H](CC(C)C)C(=O)N[C@@H](CCC(=O)O)C(=O)N1CCC[C@H]1C(=O)N3)NC(=O)[C@H](CCCCN)NC(=O)CNC(=O)[C@H](CC(N)=O)NC(=O)[C@H](CCSC)NC2=O` [M23A] (H-GVIINVKCKISRQCLEPCKKAGARFGKCMNGKCHCTPK-OH; disulfide 8-28, 14-33, 18-35): 275 pM and 275 pM.
As for `CC[C@H](C)[C@@H]1NC(=O)[C@H](CCCCN)NC(=O)[C@@H](NC(=O)[C@H](CCCCN)NC(=O)[C@@H](NC(=O)[C@H](CC(N)=O)NC(=O)[C@@H](NC(=O)[C@@H](NC(=O)[C@H](CCC(=O)O)NC(=O)CN)[C@@H](C)CC)[C@@H](C)CC)C(C)C)CSSC[C@@H]2NC(=O)[C@H](CCCCN)NC(=O)CNC(=O)[C@H](Cc3ccccc3)NC(=O)[C@H](CCCNC(=N)N)NC(=O)[C@H](CCSC)NC(=O)CNC(=O)[C@H](C)NC(=O)[C@H](CCCCN)NC(=O)[C@H](CCCCN)NC(=O)[C@@H]3CSSC[C@@H](C(=O)N[C@H](C(=O)N4CCC[C@H]4C(=O)N[C@@H](CCCCN)C(=O)O)[C@@H](C)O)NC(=O)[C@H](Cc4c[nH]cn4)NC(=O)[C@H](CSSC[C@H](NC(=O)[C@H](CCC(N)=O)NC(=O)[C@H](CCCNC(=N)N)NC(=O)[C@H](CO)NC1=O)C(=O)N[C@@H](CC(C)C)C(=O)N[C@@H](CCC(=O)O)C(=O)N1CCC[C@H]1C(=O)N3)NC(=O)[C@H](CCCCN)NC(=O)CNC(=O)[C@H](CC(N)=O)NC(=O)[C@H](CCSC)NC2=O` [V2E] (H-GEIINVKCKISRQCLEPCKKAGMRFGKCMNGKCHCTPK-OH; disulfide 8-28, 14-33, 18-35), the IC50 was determined as 97 pM in test [1] (setting [3]) and 184 pM in test [2] (setting [4]).
`CC[C@H](C)[C@@H]1NC(=O)[C@H](CCCCN)NC(=O)[C@@H](NC(=O)[C@H](CCCCN)NC(=O)[C@@H](NC(=O)[C@H](CC(N)=O)NC(=O)[C@@H](NC(=O)[C@@H](NC(=O)[C@@H](NC(=O)CN)C(C)C)[C@@H](C)CC)[C@@H](C)CC)C(C)C)CSSC[C@@H]2NC(=O)[C@H](CCCCN)NC(=O)CNC(=O)[C@H](Cc3ccccc3)NC(=O)[C@H](CCCNC(=N)N)NC(=O)[C@H](CCSC)NC(=O)CNC(=O)[C@H](C)NC(=O)[C@H](CCCCN)NC(=O)[C@H](CCCCN)NC(=O)[C@@H]3CSSC[C@@H](C(=O)N[C@H](C(=O)N4CCC[C@H]4C(=O)N[C@@H](CCCCN)C(=O)O)[C@@H](C)O)NC(=O)[C@H](Cc4c[nH]cn4)NC(=O)[C@H](CSSC[C@H](NC(=O)[C@H](CCC(N)=O)NC(=O)[C@H](CCCNC(=N)N)NC(=O)[C@H](CO)NC1=O)C(=O)N[C@@H](CC(C)C)C(=O)N[C@@H](CCC(=O)O)C(=O)N[C@@H](C)C(=O)N3)NC(=O)[C@H](CCCCN)NC(=O)CNC(=O)[C@H](CC(N)=O)NC(=O)[C@H](CCSC)NC2=O` [P17A] (H-GVIINVKCKISRQCLEACKKAGMRFGKCMNGKCHCTPK-OH; disulfide 8-28, 14-33, 18-35): the IC50 in test [1] (setting [3]) and in test [2] (setting [4]) was 173 pM each time.
In the case of `CC[C@H](C)[C@@H]1NC(=O)[C@H](CCCCN)NC(=O)[C@@H](NC(=O)[C@H](CCCCN)NC(=O)[C@@H](NC(=O)[C@H](CC(N)=O)NC(=O)[C@@H](NC(=O)[C@H](CCCNC(=N)N)NC(=O)[C@@H](NC(=O)CN)C(C)C)[C@@H](C)CC)C(C)C)CSSC[C@@H]2NC(=O)[C@H](CCCCN)NC(=O)CNC(=O)[C@H](Cc3ccccc3)NC(=O)[C@H](CCCNC(=N)N)NC(=O)[C@H](CCSC)NC(=O)CNC(=O)[C@H](C)NC(=O)[C@H](CCCCN)NC(=O)[C@H](CCCCN)NC(=O)[C@@H]3CSSC[C@@H](C(=O)N[C@H](C(=O)N4CCC[C@H]4C(=O)N[C@@H](CCCCN)C(=O)O)[C@@H](C)O)NC(=O)[C@H](Cc4c[nH]cn4)NC(=O)[C@H](CSSC[C@H](NC(=O)[C@H](CCC(N)=O)NC(=O)[C@H](CCCNC(=N)N)NC(=O)[C@H](CO)NC1=O)C(=O)N[C@@H](CC(C)C)C(=O)N[C@@H](CCC(=O)O)C(=O)N1CCC[C@H]1C(=O)N3)NC(=O)[C@H](CCCCN)NC(=O)CNC(=O)[C@H](CC(N)=O)NC(=O)[C@H](CCSC)NC2=O` [I3R] (H-GVRINVKCKISRQCLEPCKKAGMRFGKCMNGKCHCTPK-OH; disulfide 8-28, 14-33, 18-35), the IC50 came out at 148 pM in test [1] (setting [3]) and 180 pM in test [2] (setting [4]).
For the molecule “GVIINVKCAISRQCLEPCKKAGMRFGKCMNGKCHCTPK [Ala-9 (SEQ ID No: 1407)]”, the IC50 in test [1] (read-out: Average IC50 IL-2) was determined as 79.6 pM; in test [2] (read-out: Average IC50 IFNg), 71.1 pM.
`CC[C@H](C)[C@@H]1NC(=O)[C@H](CCCCN)NC(=O)[C@@H](NC(=O)[C@H](CCCCN)NC(=O)[C@@H](NC(=O)[C@H](CC(N)=O)NC(=O)[C@@H](NC(=O)[C@@H](NC(=O)[C@@H](NC(=O)CN)C(C)C)[C@@H](C)CC)[C@@H](C)CC)C(C)C)CSSC[C@@H]2NC(=O)[C@H](CCCCN)NC(=O)CNC(=O)[C@H](Cc3ccccc3)NC(=O)[C@H](CCCNC(=N)N)NC(=O)[C@H](CCSC)NC(=O)CNC(=O)[C@H](C)NC(=O)[C@H](CCCCN)NC(=O)[C@H](CCCCN)NC(=O)[C@@H]3CSSC[C@@H](C(=O)N[C@H](C(=O)N4CCC[C@H]4C(=O)N[C@@H](CCCCN)C(=O)O)[C@@H](C)O)NC(=O)[C@H](Cc4c[nH]cn4)NC(=O)[C@H](CSSC[C@H](NC(=O)[C@H](CCC(N)=O)NC(=O)[C@H](CCCNC(=N)N)NC(=O)[C@H](CO)NC1=O)C(=O)N[C@@H](CC(C)C)C(=O)N[C@@H](CCC(=O)O)C(=O)N1CCC[C@H]1C(=O)N3)NC(=O)[C@H](CCCNC(=N)N)NC(=O)CNC(=O)[C@H](CC(N)=O)NC(=O)[C@H](CCSC)NC2=O` [K32R] (H-GVIINVKCKISRQCLEPCKKAGMRFGKCMNGRCHCTPK-OH; disulfide 8-28, 14-33, 18-35): the IC50 is 28 pM in test [1] (setting [3]) and 34 pM in test [2] (setting [4]).
